According to patent publication US8975265B2, “Substituted imidazo[1,2-a]pyrimidines and —pyridines” (Bayer Intellectual Property GmbH, priority 2010, dated 2015):

Legend:
[1] = test system: KPL-4 breast cancer cell line; test: Tumor cell proliferation assay (CellTiter-Glo, 72 h), KPL-4; format: cell-based; details: KPL4, 72h drug exposure
Procedure, shortened: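 KPL-4 cells were treated with compound for 72 h at 37°C. Viability was measured as ATP by CellTiter-Glo luminescence, with a separate t=0 plate read after overnight attachment. A reference compound was run as standard.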

[2] = test system: p-AKT1/2/3-S473 in KPL4 breast tumour cell line; test: Cellular p-AKT1/2/3-S473 assay; format: cell-based; details: KPL4 breast tumour cell line, 2 hours treatment; read-out: pAKT-S743 median IC50
Procedure, shortened: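 KPL4 cells (PIK3CA H1047R, HER2 0/E, hormone independent) were seeded at 60–80% confluency, cultured overnight, then exposed to compound for 2 h at 37 °C. pAKT-S473 and total AKT measured together by MSD Akt Duplex on 20 µg extract; pAKT expressed as % of total AKT, at least duplicate with independent repeats.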

[3] = biological target: His-tagged human recombinant kinase full-length Akt1 (Homo sapiens (Human), UniProt P31749); test: Akt1 kinase assay (TR-FRET); format: biochemical; details: 10 μM ATP; read-out: Akt1, median IC50
His-tagged human recombinant kinase full-length Akt1, sequence (P31749 whole entry): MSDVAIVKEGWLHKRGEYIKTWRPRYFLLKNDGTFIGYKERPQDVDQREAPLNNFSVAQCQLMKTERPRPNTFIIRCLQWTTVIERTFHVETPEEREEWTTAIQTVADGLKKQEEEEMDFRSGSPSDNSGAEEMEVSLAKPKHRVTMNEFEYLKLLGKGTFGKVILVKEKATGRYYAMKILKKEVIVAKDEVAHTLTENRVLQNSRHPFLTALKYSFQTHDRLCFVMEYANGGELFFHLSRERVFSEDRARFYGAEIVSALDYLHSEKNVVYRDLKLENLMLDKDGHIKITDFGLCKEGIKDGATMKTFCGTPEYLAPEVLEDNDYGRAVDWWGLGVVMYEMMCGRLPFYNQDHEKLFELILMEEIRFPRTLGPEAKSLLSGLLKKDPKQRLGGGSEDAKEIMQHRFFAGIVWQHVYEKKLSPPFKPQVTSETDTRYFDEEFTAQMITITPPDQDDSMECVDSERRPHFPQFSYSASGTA
Procedure, shortened: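 Full-length His-tagged Akt1 (about 0.05 ng/μl final) preincubated 15 min at 22 °C with compound in 50 mM TRIS/HCl pH 7.5, 5 mM MgCl2, 1 mM DTT, 0.02% Triton X-100; biotinylated peptide substrate. Phosphopeptide detected by TR-FRET (Eu-chelate antibody to streptavidin-XL665) after 1 h at 22 °C.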

[4] = test system: p-4E-BP1-T70 in KPL4 breast tumour cell line; test: Cellular p-4E-BP1-T70 assay; format: cell-based; details: 2 hours treatment, read-out: P4EBP1-T70 median IC50
Method: The molecular mechanism of action was investigated in a set of experiments to assess the inhibition of the PI3K-AKT-mTOR pathway in responsive cell lines such as KPL4 breast tumour cell line (PIK3CAH1047R, HER20/E and hormone independent). The phospho-substrates of PI3K-AKT-mTOR axis were used as the read-outs to reflect pathway inhibition. Cells were seeded at 60-80% confluency per well in 96-well cell culture plates. After overnight incubation at 37° C. 5% CO2, cells were treated with compounds and vehicle at 37° C. for 2 hours. Thereafter, cells were lysed in 150 μl lysis buffer and the levels of phospho-AKT at T308 and S473 and p-4E-BP1 at T70 sites were determined with the corresponding AlphaScreen® SureFire® assay kits (Perkin Elmer: 4E-BP1 Assay Kit Cat # TRG4E2S10K; Akt 1/2/3 p-Ser 473 #TGRA4S500 and Akt 1/2/3 p-Thr 308 #TGRA3S500 as well as IgG detection Kit #6760617M) as described in the manuals. All measurements where at least done in duplicates and confirmed by independent repetition.

MCF7 = test: Tumor cell proliferation assay (CellTiter-Glo, 72 h), MCF7; format: cell-based; details: Homo sapiens, 72h drug exposure
Method: Compounds were tested in a cell-based assay that measures the capacity of the compounds to inhibit tumour cell proliferation following a 72h drug exposure. Cell viability is determined using CellTiter-Glow® (CTG, Promega, cat# G7571/2/3). The CellTiter-Glo® Luminescent Cell Viability Assay is a homogeneous method to determine the number of viable cells in culture. Detection is based on using the luciferase reaction to measure the amount of ATP from viable cells. The amount of ATP in cells correlates with cell viability. Within minutes after a loss of membrane integrity, cells lose the ability to synthesize ATP, and endogenous ATPases destroy any remaining ATP; thus the levels of ATP fall precipitously.
Cells were plated at 3000-5000 cells/well (depending on the cell lines) in 90 μL growth medium on MTPs (Corning; #3603, black plate, clear flat bottom). For each cell line assayed, cells were plated onto a separate plate for determination of […] at t=0 hour and t=72 hour time points. Following overnight incubation at 37° C., chemiluminescence values for the t=0 samples were determined after adding 10 μl medium and 100 μl CTG solution according to manufacture protocol. Plates for the t=72 hour time points were treated with compounds diluted into growth medium at ten times final concentration added in 10 μL to the cell culture plate. Cells were then incubated for 72 hours at 37° C. Chemiluminescence values for the t=72 hour samples were determined. […] Experiments were controlled using a reference compound as standard.

Row | SMILES | IC50 [1] | IC50 [2] | IC50 [3] | IC50 [4] | IC50 (MCF7)
1 | N#Cc1ccc2nc(-c3ccc(C4(N)CCC4)cc3)c(-c3ccccc3)n2c1 [Example 1-10] | 1.6 µM | 0.138 µM | 0.287 µM | 2.03 µM | –
2 | COC(=O)c1cc(OC)c2nc(-c3ccc(C4(N)CCC4)cc3)c(-c3ccccc3)n2c1 [Example 1-12] | 8.3 µM | 0.276 µM | – | – | 0.8 µM
3 | NC1(c2ccc(-c3nc4ccc(-n5cccn5)cn4c3-c3ccccc3)cc2)CCC1 [Example 1-16] | 2 µM | 0.359 µM | – | – | 1.8 µM
4 | Cc1ccc2nc(-c3ccc(C4(N)CCC4)cc3)c(-c3ccccc3)n2c1 [Example 2-7] | 1.9 µM | 0.487 µM | 0.203 µM | 3.96 µM | –
5 | NC1(c2ccc(-c3nc4cc(F)ccn4c3-c3ccccc3)cc2)CCC1 [Example 2-67] | 1.7 µM | 0.195 µM | 0.064 µM | 2 µM | 1.3 µM
6 | NC1(c2ccc(-c3nc4c(-c5ccc(F)cc5)cccn4c3-c3ccccc3)cc2)CCC1 [Example 2-68, 1-{4-[8-(4-fluorophenyl)-3-phenyl-imidazo[1,2-a]pyridin-2-yl]-phenyl}-cyclobutylamine] | 3.1 µM | 0.748 µM | 0.308 µM | – | 1.9 µM
7 | NC1(c2ccc(-c3nc4c(-c5cccc(F)c5)cccn4c3-c3ccccc3)cc2)CCC1 [Example 2-69] | 2.9 µM | 0.796 µM | 0.208 µM | – | 1.8 µM
8 | COc1cncc(-c2cccn3c(-c4ccccc4)c(-c4ccc(C5(N)CCC5)cc4)nc23)c1 [Example 2-70] | 2 µM | 0.298 µM | – | – | 1.6 µM
9 | NC1(c2ccc(-c3nc4c(-c5ccn[nH]5)cccn4c3-c3ccccc3)cc2)CCC1 [Example 2-71] | 1.9 µM | 0.153 µM | 0.064 µM | – | 1.6 µM
10 | NC1(c2ccc(-c3nc4c(-c5ccc6cn[nH]c6c5)cccn4c3-c3ccccc3)cc2)CCC1 [Example 2-72] | 2.1 µM | 0.814 µM | 0.39 µM | – | 1.7 µM
11 | Cc1ccn2c(-c3ccccc3)c(-c3ccc(C4(N)CCC4)cc3)nc2c1Cl [Example 2-74] | 1.4 µM | 0.251 µM | – | 1.4 µM | 1.6 µM
12 | Cc1cc(Cl)cn2c(-c3ccccc3)c(-c3ccc(C4(N)CCC4)cc3)nc12 [Example 2-76] | 2.1 µM | 0.582 µM | – | 1.96 µM | 1.7 µM
13 | CCOC(=O)c1cc(Br)c2nc(-c3ccc(C4(N)CCC4)cc3)c(-c3ccccc3)n2c1 [Example 2-77] | 8.1 µM | 0.474 µM | – | 1.72 µM | 1.7 µM
14 | NC1(c2ccc(-c3nc4c(Cl)cc(Cl)cn4c3-c3ccccc3)cc2)CCC1 [Example 2-78] | 1.9 µM | 0.1 µM | – | 1.58 µM | 1.1 µM
15 | COc1ccn2c(-c3ccccc3)c(-c3ccc(C4(N)CCC4)cc3)nc2c1C#N [Example 2-79] | 0.9 µM | 0.048 µM | – | 0.37 µM | 0.5 µM
16 | NC1(c2ccc(-c3nc4cc(Cl)c(Cl)cn4c3-c3ccccc3)cc2)CCC1 [Example 2-80] | 2 µM | 0.912 µM | – | 1.85 µM | 1.8 µM
17 | Cc1cc(Br)cn2c(-c3ccccc3)c(-c3ccc(C4(N)CCC4)cc3)nc12 [Example 2-82] | 2.1 µM | 1.02 µM | – | 3.28 µM | 1.7 µM

Row | SMILES | IC50 [1] | IC50 [2] | IC50 [3] | IC50 [4] | IC50 (MCF7)
18 | Cc1cc(Br)c2nc(-c3ccc(C4(N)CCC4)cc3)c(-c3ccccc3)n2c1 [Example 2-83] | 1.8 µM | 0.189 µM | – | 0.615 µM | 2 µM
19 | Cc1c(Br)cn2c(-c3ccccc3)c(-c3ccc(C4(N)CCC4)cc3)nc2c1C [Example 2-84] | 2.2 µM | 1.34 µM | – | 3.14 µM | 1.6 µM
20 | NC1(c2ccc(-c3nc4c(Br)cc(Cl)cn4c3-c3ccccc3)cc2)CCC1 [Example 2-85] | 1.9 µM | 0.161 µM | 0.005 µM | 1.8 µM | 1.4 µM
21 | NC1(c2ccc(-c3nc4c(Br)cc(C(F)(F)F)cn4c3-c3ccccc3)cc2)CCC1 [Example 2-86] | 2 µM | 1.2 µM | – | 2.51 µM | 1.8 µM
22 | Cc1c(Cl)cn2c(-c3ccccc3)c(-c3ccc(C4(N)CCC4)cc3)nc2c1-c1ccc(F)cc1 [Example 2-87] | 3.7 µM | 7.53 µM | – | 10 µM | 2.1 µM
23 | Cc1c(Cl)cn2c(-c3ccccc3)c(-c3ccc(C4(N)CCC4)cc3)nc2c1-c1ccn[nH]1 [Example 2-88] | 2.5 µM | 2.57 µM | 0.187 µM | 8.52 µM | 2.1 µM
24 | COc1cncc(-c2cc(C)cn3c(-c4ccccc4)c(-c4ccc(C5(N)CCC5)cc4)nc23)c1 [Example 2-91] | 2 µM | 0.678 µM | – | 1.61 µM | 1.8 µM
25 | NC(=O)c1cc(Br)cn2c(-c3ccccc3)c(-c3ccc(C4(N)CCC4)cc3)nc12 [Example 2-94] | 1.8 µM | 0.058 µM | – | 0.292 µM | 1.7 µM
26 | CC(=O)c1ccn2c(-c3ccccc3)c(-c3ccc(C4(N)CCC4)cc3)nc2c1 [Example 2-128] | 4.4 µM | 0.471 µM | 0.175 µM | – | 1.7 µM
27 | NC1(c2ccc(-c3nc4ccc(-c5ncc[nH]5)cn4c3-c3ccccc3)cc2)CCC1 [Example 2-130] | 8.4 µM | 0.731 µM | 0.321 µM | – | 1.8 µM
28 | CC(=O)Nc1ccn2c(-c3ccccc3)c(-c3ccc(C4(N)CCC4)cc3)nc2c1 [Example 2-152] | 1.8 µM | 0.185 µM | 0.554 µM | – | 1.7 µM
29 | NC(=O)Nc1ccn2c(-c3ccccc3)c(-c3ccc(C4(N)CCC4)cc3)nc2c1 [Example 2-153] | 10 µM | 1.64 µM | 0.457 µM | – | 0.4 µM
30 | CON(C)C(=O)c1ccn2c(-c3ccccc3)c(-c3ccc(C4(N)CCC4)cc3)nc2c1 [Example 2-154] | 7.5 µM | 0.72 µM | 2.15 µM | – | 1.7 µM
31 | NC(=O)Nc1ccc2nc(-c3ccc(C4(N)CCC4)cc3)c(-c3ccccc3)n2c1 [Example 2-157] | 10 µM | 0.965 µM | – | – | 1.1 µM
32 | CNC(=O)Nc1ccc2nc(-c3ccc(C4(N)CCC4)cc3)c(-c3ccccc3)n2c1 [Example 2-158] | 4.7 µM | 0.384 µM | 0.327 µM | – | 1.7 µM
33 | COc1cc(-c2cn[nH]c2)cn2c(-c3ccccc3)c(-c3ccc(C4(N)CCC4)cc3)nc12 [Example 13-0, 1-{4-[8-methoxy-3-phenyl-6-(1H-pyrazol-4-yl)-imidazo[1,2-a]pyridin-2-yl]-phenyl}-cyclobutylamine] | 1.7 µM | 0.089 µM | 0.081 µM | – | 0.9 µM
34 | N#Cc1cc(Cl)c2nc(-c3ccc(C4(N)CCC4)cc3)c(-c3ccccc3)n2c1 [Example 15-0, 2-[4-(1-aminocyclobutyl)phenyl]-8-chloro-3-phenylimidazo[1,2-a]pyridine-6-carbonitrile] | 1.3 µM | 0.03 µM | 0.141 µM | – | 0.6 µM
